The values below come from patent publication US20250241918A1, “NOVEL USE OF PYRAZOLOPYRIMIDINE COMPOUND” (HEFEI YOUYUAN PHARMACEUTICAL CO., LTD., priority 2022, published 2025).

Each structure is given as a SMILES string.

The test system of test [1] is rat colitis model induced by rectal administration of DNBS. The test is described as follows: Rat colitis induced by enema administration of DNBS. The class given is in vivo, Wister rats. The note with it: 20 mg/kg p.o. QD, day -2 to 6 (G6); DNBS colitis rats; comparable to positive control group. How it is done:
Sixty male Wister rats (purchased from Beijing Vital River Laboratory Animal Technology Co., Ltd.) were randomly divided into six groups, with 10 rats in each group: G1 was the blank control group; G2-G6 were the rat colitis model groups induced by rectal administration of DNBS solution (Tokyo Chemical Industry Co., Ltd., 50 mg/mL DNBS dissolved in 30% ethanol). Various animals were administered with drugs starting from two days before colitis induced by DNBS, and the administration schedules were shown in Table 3 below.
The induction of colitis was performed as follows. The rats were fasted for 40 h before administration, and were subcutaneously injected with 5% glucose saline ([…], once a day) during the fast. On day 0, the fasted rats were anesthetized using Zoletil (intraperitoneal injection, 25 mg/kg, purchased from a pharmacy) and xylazine (intraperitoneal injection, 5 mg/kg, purchased from Sigma-Aldrich). In G2-G6 model groups, colitis was induced in rats by inserting a catheter from the anus into the left colic flexure (about 8 cm away from the anus) and administrating DNBS (0.5 mL per rat) through enema administration. The G1 blank control group was administered with 30% ethanol via enema using the same method. In order to avoid the reflux of enema fluid, animals with enema administration were kept in a head-down position for 15 mins, and then maintained in the Trendelenburg position until waking up.
During the administration period, the body weights of rats in all groups were recorded every day. Six days later, the animals were euthanized and the colorectal tissues were collected. The ulcer area of the colorectum, as well as the degrees of adhesion, intestinal obstruction, ulceration, and intestinal wall thickening, were measured. The pathological condition of the intestinal wall was evaluated. The conditions of colon damage was evaluated according to Table 4.
If the ulcer is irregular in shape, it can be considered as a rectangle, and then the length and width were measured to evaluate the ulcer area. Ulcer area (cm^2)=ulcer length (cm)×ulcer width (cm).

Test [2] has as its system adjuvant-induced arthritis model rats. The experiment in a line: Adjuvant-induced rat arthritis model. It is filed as in vivo, Sprague-Dawley (SD) rats. The note with it: Day 21. How it is done: Experimental animals: Fifty male Sprague-Dawley (SD) rats weighing 180+20 g (provided by Qinglongshan Animal Breeding Center, license number SCXK(Su) 2017-0001) were fed with conventional pellet food (Jiangsu Xietong Biology Co., Ltd.) and housed in a clean animal facility. The rats were housed under a 12 h dark/12 h light cycle with free access to food and water. The temperature was maintained between 20° C. to 26° C., while the relative humidity ranged from 40% to 70%. […] Each group of 10 animals was administered QD for a continuous period of 21 days. […]
Paw swelling measurement: 1) the volume of right hind paw for the rats in each group was measured and recorded using a plethysmometer for paw volume before administration, which was used as the baseline value before modeling; 2) the volume of the rats' paw was measured at the end of administration (Day 21), which was used as the secondary value; 3) the swelling volume of the rats' paw was calculated according to the following formula: […]
The arthritis index scores were determined as following: at the end of administration (Day 21), rats in each group were evaluated according to the scoring standard described in Table 5. […]

`CN(C)CC(=O)N1CCC[C@@H](n2nc(-c3ccc(Oc4ccccc4)cc3)c3c(N)ncnc32)C1` [Compound 22, (R)-1-(3-(4-amino-(4-phenoxyphenyl)-1H-pyrazolo[3,4-d]pyrimidin-1-yl)piperidin-1-yl)-2-(dimethylamino) ethanone]: in test [1], the “animal body weights vs G2 model group” value was “significantly lower than those for the G2 group”; the “scores for the degrees of adhesion, intestinal obstruction, ulceration, intestinal wall thickening vs G2 model group” value is reported as “significantly lower than those for the G2 group”; the “ulcer areas of colorectal tissues vs G2 model group” value was “significantly lower than those for the G2 group”. Besides, the paw swelling result in test [2] (10 mg/kg orally QD) is given as “significantly alleviated paw swelling”. Also, in test [2] (30 mg/kg orally QD), the paw swelling result is given as “significantly alleviated paw swelling”.
